Data taken from paper PMC7069944, “Amino acid levels determine metabolism and CYP450 function of hepatocytes and hepatoma cell lines” (Nature Communications, 2020).
“And” between values parts separate entries of the source, which are not always exact repeats. Equal values may be shown once.

Assays:
HC3X = experiment: Repeated-exposure DILI training compounds, resazurin conversion, HC3X; details: for resazurin conversion (Supplementary Figure 7D): HC3X AAGLY D40, replicates, listed as Ximelatagran
Summary of the method: (§1)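 PSC-derived hepatocyte-like cells were differentiated in 384-well plates, and drugs were added after 8 h of attachment. Viability was measured by resazurin conversion and related to therapeutic Cmax values, with untreated wells as negative control.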

HepG2 = experiment: Repeated-exposure DILI training compounds, resazurin conversion, HepG2; details: replicates, listed as Ximelatagran
Summary of the method: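 PSC-derived cells differentiated in 384-well format, plus HepG2 seeded at 40,000 cells/well, received drugs after 8 h of attachment; untreated wells served as negative controls. Viability was measured by resazurin conversion and related to therapeutic Cmax values.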

HC6X = experiment: Repeated-exposure DILI training compounds, resazurin conversion, HC6X; details: replicates, listed as Ximelatagran
Summary of the method: as §1

HLC = experiment: Repeated-exposure DILI training compounds, resazurin conversion, HLC; details: replicates, listed as Ximelatagran
Summary of the method: as §1

Q: Which “resazurin conversion (Supplementary Figure 7D)” value (from here on “resazurin conversion”) (HC3X; 10 uM) does the source give for `CCOC(=O)CN[C@@H](C(=O)N1CC[C@H]1C(=O)NCc1ccc(/C(N)=N\O)cc1)C1CCCCC1` [ximelagatran] here?
A: 103.6 and 112.1 and 116.7 and 110.7 and 88 and 80.4

Q: What about the “resazurin conversion” value (HC3X; 30 uM) of the same compound?
A: 112.5 and 93.4 and 100.9 and 65.5 and 110.1 and 86

Q: And the “resazurin conversion” value (HC3X; 50 uM)?
A: 112.6 and 97.1 and 99.6 and 78.9 and 96.7 and 79.4

Q: And the “resazurin conversion” value (HC3X; 100 uM)?
A: 99 and 94.2 and 111.5 and 113 and 97.2 and 95.7

Q: What about the “resazurin conversion” value (HC3X; 300 uM) of the same compound?
A: 105.9 and 98.6 and 86.6 and 80.1 and 95.6 and 93.9

Q: And the “resazurin conversion” value (HC3X; 500 uM)?
A: 93.3 and 104.7 and 99.6 and 103.7 and 88.7 and 115

Q: What about the “resazurin conversion” value (HC3X; 1000 uM) of the same compound?
A: 89.5 and 109.6 and 93 and 88.2 and 108.4 and 91.9

Q: And the “resazurin conversion” value (HC3X; 2000 uM)?
A: 61.4 and 104.7 and 97.3 and 97.1 and 64.3 and 60.4

Q: And the “resazurin conversion” value (HC3X; 4000 uM)?
A: 43.9 and 48.4 and 38 and 42.8 and 47.8 and 45

Q: And the IC50/Cmax (HC3X; human)?
A: 2438.67

Q: What about the “resazurin conversion” value (HepG2; HepG2 AAGLY D30, 10 uM) of the same compound?
A: 94.6 and 101.9 and 93.6

Q: What about the “resazurin conversion” value (HepG2; HepG2 AAGLY D30, 30 uM) of the same compound?
A: 92.6 and 98.4 and 83.3 and 96.4 and 96.6 and 94.8

Q: And the “resazurin conversion” value (HepG2; HepG2 AAGLY D30, 50 uM)?
A: 93.8 and 101.4 and 83.8 and 100.6 and 100.8 and 103

Q: What about the “resazurin conversion” value (HepG2; HepG2 AAGLY D30, 100 uM) of the same compound?
A: 87.1 and 96.4 and 79.9 and 96 (2×) and 99.8

Q: And the “resazurin conversion” value (HepG2; HepG2 AAGLY D30, 300 uM)?
A: 79.2 and 92.1 and 83.1 and 91.5 (2×) and 86.4

Q: What about the “resazurin conversion” value (HepG2; HepG2 AAGLY D30, 500 uM) of the same compound?
A: 73.8 and 82.7 and 72.5 and 77.3 and 81.8 and 90.8

Q: And the “resazurin conversion” value (HepG2; HepG2 AAGLY D30, 1000 uM)?
A: 33.4 and 32.8 and 32.2 and 33.5 and 33 and 34

Q: What about the “resazurin conversion” value (HepG2; HepG2 AAGLY D30, 2000 uM) of the same compound?
A: 32.1 and 33.4 and 32.3 and 33 and 31.5 and 35.4

Q: What about the “resazurin conversion” value (HepG2; HepG2 AAGLY D30, 4000 uM) of the same compound?
A: 32.2 and 33.1 and 31.8 and 32.9 (2×) and 31.4

Q: What about the “resazurin conversion” value (HepG2; HepG2 CTL D7, 10 uM) of the same compound?
A: 100

Q: What about the “resazurin conversion” value (HepG2; HepG2 CTL D7, 30 uM) of the same compound?
A: 113.6 and 106.8 and 92.5 and 99.4 and 103.9 and 98.2

Q: What about the “resazurin conversion” value (HepG2; HepG2 CTL D7, 50 uM) of the same compound?
A: 100.3 and 102 and 94.9 and 85.4 and 97.6 and 93

Q: And the “resazurin conversion” value (HepG2; HepG2 CTL D7, 100 uM)?
A: 99.5 and 95.1 and 87 and 84.8 and 92.1 and 91.7

Q: And the “resazurin conversion” value (HepG2; HepG2 CTL D7, 300 uM)?
A: 98.7 and 94.5 and 90.1 and 84 and 87.6 and 84.8

Q: And the “resazurin conversion” value (HepG2; HepG2 CTL D7, 500 uM)?
A: 86.4 and 89.2 and 85.2 and 81.4 and 85.9 and 81.5

Q: What about the “resazurin conversion” value (HepG2; HepG2 CTL D7, 1000 uM) of the same compound?
A: 71.2 and 56.7 and 60.3 and 67.6 and 70.2 and 66

Q: And the “resazurin conversion” value (HepG2; HepG2 CTL D7, 2000 uM)?
A: 35.7 and 15 and 22 and 29.6 and 28.3 and 27.1

Q: And the “resazurin conversion” value (HepG2; HepG2 CTL D7, 4000 uM)?
A: 7.9 (2×) and 7.7 (3×) and 8

Q: What about the “resazurin conversion” value (HC6X; HC6X AAGLY D40, 10 uM) of the same compound?
A: 93.8 and 58.7 and 78.1 and 118.1

Q: And the “resazurin conversion” value (HC6X; HC6X AAGLY D40, 30 uM)?
A: 71.1 and 54.3 and 108.4 and 77.4 and 109.2 and 98.7

Q: What about the “resazurin conversion” value (HC6X; HC6X AAGLY D40, 50 uM) of the same compound?
A: 68.8 and 53.6 and 125.9 and 98.4 and 222.1 and 82.6

Q: And the “resazurin conversion” value (HC6X; HC6X AAGLY D40, 100 uM)?
A: 99.7 and 88.3 and 135.4 and 113.5 and 107.4 and 93.9

Q: What about the “resazurin conversion” value (HC6X; HC6X AAGLY D40, 300 uM) of the same compound?
A: 82 and 93.2 and 129.1 and 140.3 and 141.2 and 166.5

Q: What about the “resazurin conversion” value (HC6X; HC6X AAGLY D40, 500 uM) of the same compound?
A: 65.3 and 103.3 and 98.2 and 91.7 and 122.8 and 148.3

Q: What about the “resazurin conversion” value (HC6X; HC6X AAGLY D40, 1000 uM) of the same compound?
A: 71.6 and 76.5 and 78.4 and 144 and 115.7 and 139.1

Q: And the “resazurin conversion” value (HC6X; HC6X AAGLY D40, 2000 uM)?
A: 61.7 and 53.9 and 78.6 and 67 and 113.9 and 90

Q: And the “resazurin conversion” value (HC6X; HC6X AAGLY D40, 4000 uM)?
A: 54.4 and 81.3 and 84.4 and 85.7 and 55.2 and 56.8

Q: What about the “resazurin conversion” value (HC6X; HC6X AAGLY D40 Remove dox, 30 uM) of the same compound?
A: 72.9 and 78.3 and 89.9 and 101.5 and 95.4 and 95.8

Q: And the “resazurin conversion” value (HC6X; HC6X AAGLY D40 Remove dox, 50 uM)?
A: 55.3 and 86.1 and 70.5 and 85.8 and 92.1 and 68.6

Q: What about the “resazurin conversion” value (HC6X; HC6X AAGLY D40 Remove dox, 100 uM) of the same compound?
A: 82.1 and 85 and 79 and 110.7 and 88.3 and 96.6

Q: And the “resazurin conversion” value (HC6X; HC6X AAGLY D40 Remove dox, 300 uM)?
A: 99.4 and 92.8 and 102.5 and 91.4 and 94.8 and 77.9

Q: What about the “resazurin conversion” value (HC6X; HC6X AAGLY D40 Remove dox, 500 uM) of the same compound?
A: 78.1 and 81.7 and 105.3 and 97 and 101.1 and 82.7

Q: And the “resazurin conversion” value (HC6X; HC6X AAGLY D40 Remove dox, 1000 uM)?
A: 77.2 and 89.1 and 81.5 and 96.6 and 108.9 and 116.8

Q: And the “resazurin conversion” value (HC6X; HC6X AAGLY D40 Remove dox, 2000 uM)?
A: 95.3 and 105.5 and 72.8 and 94.8 and 76.2 and 80.9

Q: What about the “resazurin conversion” value (HC6X; HC6X AAGLY D40 Remove dox, 4000 uM) of the same compound?
A: 46.6 and 40.3 and 96 and 68.1 and 83.6 and 42.4

Q: And the “resazurin conversion” value (HLC; HLC AAGLY D40, 30 uM)?
A: 87.9 and 61.4 and 89.7 and 86.8 and 95.5 and 101.7

Q: And the “resazurin conversion” value (HLC; HLC AAGLY D40, 50 uM)?
A: 102.7 and 110.5 and 84 and 85.7 and 101.4 and 47.2

Q: What about the “resazurin conversion” value (HLC; HLC AAGLY D40, 100 uM) of the same compound?
A: 101.8 and 83.1 and 91.6 and 97.8 and 108.1 and 71.2

Q: And the “resazurin conversion” value (HLC; HLC AAGLY D40, 300 uM)?
A: 102 and 100.4 and 103.4 and 99.6 and 91.1 and 43.4

Q: And the “resazurin conversion” value (HLC; HLC AAGLY D40, 500 uM)?
A: 103.1 and 102.1 and 106.2 and 106.4 and 103.3 and 93.1

Q: And the “resazurin conversion” value (HLC; HLC AAGLY D40, 1000 uM)?
A: 124.2 and 94.4 and 100.6 and 122 and 108.3 and 107.9

Q: What about the “resazurin conversion” value (HLC; HLC AAGLY D40, 2000 uM) of the same compound?
A: 74 and 131.7 and 126.4 and 135.7 and 116.8 and 129.6

Q: And the “resazurin conversion” value (HLC; HLC AAGLY D40, 4000 uM)?
A: 129.4 and 115 and 25.5 and 112.7 and 127.1 and 50.9

Q: And the “resazurin conversion” value (HLC; HLC LDM D40, 10 uM)?
A: 103 and 119.6 and 106.5 and 118.8

Q: And the “resazurin conversion” value (HLC; HLC LDM D40, 30 uM)?
A: 98.9 and 98.8 and 106 and 104.1 and 100.4 and 102.4

Q: And the “resazurin conversion” value (HLC; HLC LDM D40, 50 uM)?
A: 120.6 and 118.1 and 72.7 and 111.9 and 69.1 and 123.9

Q: What about the “resazurin conversion” value (HLC; HLC LDM D40, 100 uM) of the same compound?
A: 93.8 and 126.7 and 78.4 and 121.1 and 87.3 and 126.3

Q: And the “resazurin conversion” value (HLC; HLC LDM D40, 300 uM)?
A: 125.4 and 106 and 125.6 and 93.6 and 136.9 and 112.2

Q: And the “resazurin conversion” value (HLC; HLC LDM D40, 500 uM)?
A: 130.3 and 128.1 and 99.5 and 124.6 and 98 and 115.9

Q: And the “resazurin conversion” value (HLC; HLC LDM D40, 1000 uM)?
A: 132.9 and 140 and 126.4 and 146.9 and 116.4 and 158.5

Q: And the “resazurin conversion” value (HLC; HLC LDM D40, 2000 uM)?
A: 87.8 and 64.2 and 95.2 and 125.1 and 69.7 and 117.1

Q: What about the “resazurin conversion” value (HLC; HLC LDM D40, 4000 uM) of the same compound?
A: 52.7 and 74.5 and 71.5 and 69.4 and 112 and 163.8
